Patent publication US12077483B2, “Modified amine lipids” (Intellia Therapeutics, Inc., priority 2018, dated 2024)

Tests used:
[1] = RNA encapsulation efficiency of LNP (Ribogreen fluorescence assay); type: physicochemical; details: LNP with the compound as amine lipid
Method: A fluorescence-based assay (Ribogreen®, ThermoFisher Scientific) is used to determine total RNA concentration and free RNA. Encapsulation efficiency is calculated as (Total RNA—Free RNA)/Total RNA. LNP samples are diluted appropriately with 1× TE buffer containing 0.2% Triton-X 100 to determine total RNA or 1× TE buffer to determine free RNA. Standard curves are prepared by utilizing the starting RNA solution used to make the compositions and diluted in 1× TE buffer+/−0.2% Triton-X 100. Diluted RiboGreen® dye (according to the manufacturer's instructions) is then added to each of the standards and samples and allowed to incubate for approximately 10 minutes at room temperature, in the absence of light. A SpectraMax M5 Microplate Reader (Molecular Devices) is used to read the samples with excitation, auto cutoff and emission wavelengths set to 488 nm, 515 nm, and 525 nm respectively. Total RNA and free RNA are determined from the appropriate standard curves.
Encapsulation efficiency is calculated as (Total RNA−Free RNA)/Total RNA. The same procedure may be used for determining the encapsulation efficiency of a DNA-based cargo component. For single-strand DNA, Oligreen Dye may be used and for double-strand DNA, Picogreen Dye.

mouse TTR = assay: Serum TTR ELISA in mice after LNP delivery; type: in vivo; details: mouse serum, relative to TSS control of same experiment
Method: For studies measuring in vivo editing in liver, CD-1 female mice were dosed at 0.1 mpk unless otherwise noted. Animals were euthanized at 6 or 7 days by exsanguinationvia cardiac puncture under isoflourane anesthesia. Liver tissue was collected from each animal for DNA extraction and analysis. Blood was collected into serum separator tubes or into tubes containing buffered sodium citrate for plasma as described herein. Cohorts of mice were measured for editing by Next-Generation Sequencing (NGS).
Blood was collected and the serum was isolated as indicated. The total mouse TTR serum levels were determined using a Mouse Prealbumin (Transthyretin) ELISA Kit (Aviva Systems Biology, Cat. OKIA00111). Briefly, sera were serial diluted with kit sample diluent, e.g. to a final dilution of 10,000-fold and/or 2,500-fold. The diluted sample was then added to the ELISA plates and the assay was then carried out according to directions. Serum TTR data from treatment groups are expressed as a percentage of vehicle control levels.

[2] = pKa of amine lipid by TNS fluorescence; type: physicochemical; details: probe TNS (6-(p-toluidino)-2-naphthalenesulfonic acid sodium salt), unformulated amine lipid in ethanol, sodium phosphate buffers -9.0
Method: The pKa of each amine lipid was determined according to the method in Jayaraman, et al. (Angewandte Chemie, 2012) with the following adaptations. The pKa was determined for unformulated amine lipid in ethanol. Lipid stock solutions (2.94 mM) were diluted into Sodium Phosphate Buffers (0.1 M, Boston Bioproducts) of different pH (pH-range: 4.5-9.0) yielding a final lipid concentration of approx. 100 μM. The test samples were supplemented with TNS {6-(p-Toluidino)-2-naphthalenesulfonic acid sodium salt}, incubated and the fluorescence intensity was measured using excitation and emission wavelengths of 321 nm and 448 nm, respectively. The recorded data were normalized and the respective pKa values were derived from sigmoidal fitting.

[3] = LNP average particle size and polydispersity by dynamic light scattering; type: physicochemical; details: LNP with the compound as amine lipid
Text: The LNPs have a size of about 1 to about 1,000 nm, about 10 to about 500 nm, about 20 to about 500 nm, in a sub-embodiment about 50 to about 400 nm, in a sub-embodiment about 50 to about 300 nm, in a sub-embodiment about 50 to about 200 nm, and in a sub-embodiment about 50 to about 150 nm, and in another sub-embodiment about 60 to about 120 nm. Preferably, the LNPs have a size from about 60 nm to about 100 nm. The average sizes (diameters) of the fully formed LNP, may be measured by dynamic light scattering on a Malvern Zetasizer. The LNP sample is diluted in phosphate buffered saline (PBS) so that the count rate is approximately 200-400 kcps. The data is presented as a weighted average of the intensity measure.
In some embodiments, the LNPs have a size of about 75 to about 120 nm. In some embodiments, the LNPs have a size of about 75 to about 100 nm. Unless indicated otherwise, all sizes referred to herein are the average sizes (diameters) of the fully formed nanoparticles, as measured by dynamic light scattering on a Malvern Zetasizer. The nanoparticle sample is diluted in phosphate buffered saline (PBS) so that the count rate is approximately 200-400 kcps. The data is presented as a weighted-average of the intensity measure (Z-average diameter).
Dynamic Light Scattering (“DLS”) is used to characterize the polydispersity index (“pdi”) and size of the LNPs of the present disclosure. DLS measures the scattering of light that results from subjecting a sample to a light source. PDI, as determined from DLS measurements, represents the distribution of particle size (around the mean particle size) in a population, with a perfectly uniform population having a PDI of zero. Electropheretic light scattering is used to characterize the surface charge of the LNP at a specified pH. The surface charge, or the zeta potential, is a measure of the magnitude of electrostatic repulsion/attraction between particles in the LNP suspension. Asymmetric-Flow Field Flow Fractionation—Multi-Angle Light Scattering (AF4-MALS) is used to separate particles in the composition by hydrodynamic radius and then measure the molecular weights, hydrodynamic radii and root mean square radii of the fractionated particles. […] Nanoparticle tracking analysis (NTA, Malvern Nanosight) can be used to determine particle size distribution as well as particle concentration. LNP samples are diluted appropriately and injected onto a microscope slide. A camera records the scattered light as the particles are slowly infused through field of view. After the movie is captured, the Nanoparticle Tracking Analysis processes the movie by tracking pixels and calculating a diffusion coefficient. This diffusion coefficient can be translated into the hydrodynamic radius of the particle. The instrument also counts the number of individual particles counted in the analysis to give particle concentration.
LNP compositions are analyzed for average particle size, polydispersity index (pdi), total RNA content, encapsulation efficiency of RNA, and zeta potential. LNP compositions may be further characterized by lipid analysis, AF4-MALS, NTA, and/or cryo-EM. Average particle size and polydispersity are measured by dynamic light scattering (DLS) using a Malvern Zetasizer DLS instrument. LNP samples were diluted with PBS buffer prior to being measured by DLS. Z-average diameter which is an intensity-based measurement of average particle size was reported along with number average diameter and pdi. A Malvern Zetasizer instrument is also used to measure the zeta potential of the LNP. Samples are diluted 1:17 (50 μL into 800 μL) in 0.1×PBS, pH 7.4 prior to measurement.

[4] = Expt. 2, composition ratio (mol %) 50/9/39.5/3 for Cmpnd 49, 50/9/39.5/1.5 for the others
[5] = Expt. 8, composition ratio (mol %) 50/9/38/3 for Cmpnd 49, 50/10/38.5/1.5 for the others
[6] = Expt. 1, composition ratio (mol %) 50/9/38/3 for Cmpnd 49, 50/10/38.5/1.5 for the others
[7] = Expt. 6, composition ratio (mol %) 50/9/38/3 for Cmpnd 49, 50/10/38.5/1.5 for the others
[8] = Expt. 10, composition ratio (mol %) 50/9/38/3 for Cmpnd 49, 50/10/38.5/1.5 for the others

SMILES	Serum TTR % TSS (mouse TTR; dose 0.03 mpk)	Serum TTR % TSS (mouse TTR; dose 0.1 mpk)	pKa [2]	Encapsulation (%) [1, 6]	Num Ave Size (nm) [3, 6]	PDI [3, 6]	Z-Ave Size (nm) [3, 6]	also measured
CCCCC/C=C\C/C=C\CCCCCCCC(=O)OCC(COC(=O)CCCCCCC/C=C\C/C=C\CCCCC)OC(=O)CCC(CCCCCC)OC(=O)NCC1CCCN1C (stereo not shown) [Compound 44, 2-((4-((((1-methylpyrrolidin-2-yl)methyl)carbamoyl)oxy)decanoyl)oxy)propane-1,3-diyl (9Z,9′Z,12Z,12′Z)-bis(octadeca-9,12-dienoate)]	119.97 % TSS	78.79 % TSS	6.45	–	–	–	–	Encapsulation (%) [1, 4]: 99%; Encapsulation (%) [1, 5]: 99%; Num Ave Size (nm) [3, 4]: 78.34 nm; PDI [3, 4]: 0.034; Z-Ave Size (nm) [3, 4]: 97.65 nm; Num Ave Size (nm) [3, 5]: 85.76 nm; PDI [3, 5]: 0.034; Z-Ave Size (nm) [3, 5]: 104.3 nm
CCCCC/C=C\C/C=C\CCCCCCCC(=O)OCC(COC(=O)CCCCCCC/C=C\C/C=C\CCCCC)OC(=O)CC(CCCCCCCC)OC(=O)NCCN(C)CC (stereo not shown) [Compound 52, 2-((3-(((2-(ethyl(methyl)amino)ethyl)carbamoyl)oxy)undecanoyl)oxy)propane-1,3-diyl (9Z,9′Z,12Z,12′Z)-bis(octadeca-9,12-dienoate)]	–	17.31 % TSS	6.26	98%	74.35 nm	0.03	90.75 nm	–
CCCCC/C=C\C/C=C\CCCCCCCC(=O)OCC(COC(=O)CCCCCCC/C=C\C/C=C\CCCCC)COC(=O)CC(CCCCCCCC)OC(=O)NCCN(C)CC (stereo not shown) [Compound 53, 2-(11-methyl-5-octyl-3,7-dioxo-2,6-dioxa-8,11-diazatridecyl)propane-1,3-diyl (9Z,9′Z,12Z,12′Z)-bis(octadeca-9,12-dienoate)]	–	13.97 % TSS	6.29	99%	75.76 nm	0.05	92.99 nm	–
CCCCC/C=C\C/C=C\CCCCCCCC(=O)OCC(COC(=O)CCCCCCC/C=C\C/C=C\CCCCC)COC(=O)CCCC(CCCCCCCC)OC(=O)NCCN(C)CC (stereo not shown) [Compound 55, 2-(13-methyl-7-octyl-3,9-dioxo-2,8-dioxa-10,13-diazapentadecyl)propane-1,3-diyl (9Z,9′Z,12Z,12′Z)-bis(octadeca-9,12-dienoate)]	–	72.79 % TSS	6.43	97%	99.29 nm	0.02	117.30 nm	–
CCCCCCCCCCOC(=O)CCCCCCCC(=O)OCC(COC(=O)CCCCCCCC(=O)OCCCCCCCCCC)OC(=O)CCC(CCCCCCCC)OC(=O)NCCN(C)CC (stereo not shown) [Compound 57, 9,9′-didecyl O′1,O1-(2-((4-(((2-(ethyl(methyl)amino)ethyl)carbamoyl)oxy)dodecanoyl)oxy)propane-1,3-diyl) di(nonanedioate)]	–	24.58 % TSS	6.18	98%	83.73 nm	0.02	100.40 nm	–
CCCCCCCCCCCOC(=O)CCCCCCCC(=O)OCC(COC(=O)CCCCCCCC(=O)OCCCCCCCCCCC)OC(=O)CC(CCCCCCCC)OC(=O)NCCN(C)CC (stereo not shown) [Compound 59, O′1,O1-(2-((3-(((2-(ethyl(methyl)amino)ethyl)carbamoyl)oxy)undecanoyl)oxy)propane-1,3-diyl) 9,9′-diundecyl di(nonanedioate)]	–	80.70 % TSS	6.34	97%	88.36 nm	0.03	109.90 nm	–
CCCCC/C=C\C/C=C\CCCCCCCC(=O)OCC(COC(=O)CCCCCCC/C=C\C/C=C\CCCCC)OC(=O)CC[C@@H](CCCCCCCC)OC(=O)NCCN(C)CC [Compound 87, 2-(((R)-4-(((2-(ethyl(methyl)amino)ethyl)carbamoyl)oxy)dodecanoyl)oxy)propane-1,3-diyl (9Z,9′Z,12Z,12′Z)-bis(octadeca-9,12-dienoate)]	80.21 % TSS	33.33 % TSS	–	–	–	–	–	Encapsulation (%) [1, 7]: 98%; Num Ave Size (nm) [3, 7]: 63 nm; PDI [3, 7]: 0.06; Z-Ave Size (nm) [3, 7]: 83.00 nm
CCCCC/C=C\C/C=C\CCCCCCCC(=O)OCC(COC(=O)CCCCCCC/C=C\C/C=C\CCCCC)OC(=O)CC[C@H](CCCCCCCC)OC(=O)NCCN(C)CC [Compound 88, 2-(((S)-4-(((2-(ethyl(methyl)amino)ethyl)carbamoyl)oxy)dodecanoyl)oxy)propane-1,3-diyl (9Z,9′Z,12Z,12′Z)-bis(octadeca-9,12-dienoate)]	75.06 % TSS	33.45 % TSS	–	–	–	–	–	Encapsulation (%) [1, 7]: 98%; Num Ave Size (nm) [3, 7]: 73 nm; PDI [3, 7]: 0.02; Z-Ave Size (nm) [3, 7]: 88.00 nm
CCCCC/C=C\C/C=C\CCCCCCCC(=O)OCC(COC(=O)CCCCCCC/C=C\C/C=C\CCCCC)OC(=O)CCC(CCCCCCCC)OC(=O)NCCN1CCCCC1 (stereo not shown) [Compound 94, 2-((4-(((2-(piperidin-1-yl)ethyl)carbamoyl)oxy)dodecanoyl)oxy)propane-1,3-diyl (9Z,9′Z,12Z,12′Z)-bis(octadeca-9,12-dienoate)]	–	–	5.8	–	–	–	–	Encapsulation (%) [1, 8]: 98%; Num Ave Size (nm) [3, 8]: 53 nm; PDI [3, 8]: 0.06; Z-Ave Size (nm) [3, 8]: 70 nm
